Results published in patent US11976083B2, “Inhibitors of peptidylarginine deiminases” (Gilead Sciences, Inc., priority 2020, dated 2024).

Target: T1, human PAD4 (Homo sapiens, UniProt Q9UM07)
T1 construct: human PAD4 (NM_012387), A2-P663, was PCR amplified; His-SUMO (N, cleaved yes); made in house; host or cells: E. coli BL21(DE3)
Assay: In vitro PAD4 BAEE biochemical assay
Conditions: BAEE substrate 3 mM, 5 nM PAD4, 2 mM calcium chloride; geometric mean of multiple experiments
In short: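 Fluorescence read-out (ex 405/em 535 nm) of isoindole formed from ammonia, o-phthalaldehyde and DTT after EDTA stop. Reaction: 5 nM PAD4, 2 mM CaCl2, 3 mM BAEE, 2 h, 25 °C, after 30 min enzyme–compound preincubation. Normalised to BB-Cl-Amidine (50 µM) and DMSO controls.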

T1 sequence (Q9UM07 2-663): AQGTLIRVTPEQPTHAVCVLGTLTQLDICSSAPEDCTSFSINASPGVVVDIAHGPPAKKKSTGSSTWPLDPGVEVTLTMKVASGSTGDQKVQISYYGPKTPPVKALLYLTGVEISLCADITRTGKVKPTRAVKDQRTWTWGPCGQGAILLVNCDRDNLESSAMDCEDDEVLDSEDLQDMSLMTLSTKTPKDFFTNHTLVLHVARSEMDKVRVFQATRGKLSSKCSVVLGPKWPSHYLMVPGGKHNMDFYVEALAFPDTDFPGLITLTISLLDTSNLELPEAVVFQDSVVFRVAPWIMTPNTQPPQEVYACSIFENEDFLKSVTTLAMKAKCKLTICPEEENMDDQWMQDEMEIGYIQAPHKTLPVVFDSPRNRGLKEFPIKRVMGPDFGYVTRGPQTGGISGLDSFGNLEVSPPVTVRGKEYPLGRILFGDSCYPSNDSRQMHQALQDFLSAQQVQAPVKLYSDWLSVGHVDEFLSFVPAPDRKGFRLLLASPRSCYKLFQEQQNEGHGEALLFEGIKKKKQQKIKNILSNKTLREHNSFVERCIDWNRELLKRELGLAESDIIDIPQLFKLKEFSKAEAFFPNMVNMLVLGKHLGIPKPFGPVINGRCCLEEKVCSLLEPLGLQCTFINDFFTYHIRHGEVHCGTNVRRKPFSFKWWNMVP

| Structure (SMILES) | IC50 [nM] |
| --- | --- |
| COc1cc(C(=O)N2[C@H]3CC[C@@H]2[C@H](N)C3)cc2nc(-c3cc4ccc5nc4n3CC(F)(F)CCCCCC(=O)N[C@@H]5C)n(C)c12 [Example 534, (11~{R})-17-[5-[(1~ {R},2~{R},4~{S})-2-amino-7-azabicyclo[2.2.1]heptane-7-carbonyl]-7-methoxy-1-methyl-benzimidazol-2-yl]-3,3-difluoro-11-methyl-1,10,19-triazatricyclo[10.5.2.0^ {15,18}]nonadeca-12(19),13,15(18),16-tetraen-9-one] | 56 |
| COc1cc(C(=O)N2CCC[C@@H](N)C2)cc2nc(-c3cc4ccc5nc4n3CCCCCCCC(=O)N[C@@H]5C)c(C)n12 [Example 301, (11~{R})-17-[7-[(3~{R})-3-aminopiperidine-1-carbonyl]-5-methoxy-3-methyl-imidazo[1,2-a]pyridin-2-yl]-11-methyl-1,10,19-triazatricyclo[10.5.2.0^{15,18}]nonadeca-12(19),13,15(18),16-tetraen-9-one] | 36 |
| COc1cc(C(=O)N[C@H]2CNCC[C@@H]2F)cc2nc(-c3cc4ccc5nc4n3CCCCCOC(C)(C)C(=O)N[C@@H]5C)n(C)c12 [Example 19, ~{N}-[(3~{S},4~{S})-4-fluoro-3-piperidyl]-7-methoxy-1-methyl-2-[(11~{R})-8,8,11-trimethyl-9-oxo-7-oxa-1,10,19-triazatricyclo[10.5.2.0^{15,18}]nonadeca-12(19),13,15(18),16-tetraen-17-yl]benzimidazole-5-carboxamide] | 76 |
| COc1cc(C(=O)N2C[C@H](N)CCN2C)cc2nc(-c3cc4ccc5nc4n3CCCCCCC(C)(C)C(=O)N[C@@H]5C)n(C)c12 [Example 299, (11~{R})-17-[5-[(5~{R})-5-amino-2-methyl-hexahydropyridazine-1-carbonyl]-7-methoxy-1-methyl-benzimidazol-2-yl]-8,8,11-trimethyl-1,10,19-triazatricyclo[10.5.2.0^{15,18}]nonadeca-12(19),13,15(18),16-tetraen-9-one] | 58 |
| COc1cc(C(=O)N2CCC[C@@H](N)C2)cc2nc(-c3cc4ccc5nc4n3C[C@H]3C[C@@H]3CCCC(C)C(=O)N[C@@H]5C)n(C)c12 (stereo partly shown) [Example 166, (3~{S},5~{S},12~{R})-18-[5-[(3~{R})-3-aminopiperidine-1-carbonyl]-7-methoxy-1-methyl-benzimidazol-2-yl]-9,12-dimethyl-1,11,20-triazatetracyclo[11.5.2.0^{3,5}.0^{16,19}] icosa-13(20),14,16(19),17-tetraen-10-one] | 49 |
| COc1cc(C(=O)N2CC[C@@H](OC(F)F)[C@@H](N)C2)cc2nc(-c3cc4ccc5nc4n3CCCCCc3ccc(Cl)nc3C(=O)N[C@@H]5C)n(C)c12 [Example 784, (2~{R})-17-[5-[(3~{S},4~{R})-3-amino-4-(difluoromethoxy)piperidine-1-carbonyl]-7-methoxy-1-methyl-benzimidazol-2-yl]-7-chloro-2-methyl-3,6,16,22-tetrazatetracyclo[14.5.2.0^ {5,10}.0^{19,23}]tricosa-1(21),5(10),6,8,17,19,22-heptaen-4-one] | 97 |
| COc1cc(C(=O)N2[C@H]3CC[C@@H]2[C@H](N)C3)cc2nc(-c3cc4ccc5nc4n3C[C@H]3C[C@@H]3CCCCC(=O)N[C@@H]5C)n(C)c12 [Example 226, (3~{S},5~{S},12~{R})-18-[5-[(1~{R},2~{R},4~{S})-2-amino-7-azabicyclo[2.2.1]heptane-7-carbonyl]-7-methoxy-1-methyl-benzimidazol-2-yl]-12-methyl-1,11,20-triazatetracyclo[11.5.2.0^{3,5}.0^{16,19}] icosa-13(20),14,16(19),17-tetraen-10-one] | 24 |
| CO[C@@H]1CCN(C(=O)c2cc(F)c3c(c2)nc(-c2cc4ccc5nc4n2CCCCCC[C@@](F)(c2cccc(Cl)n2)C(=O)N[C@@H]5C)n3C2CC2)C[C@@H]1N [Example 875, (8~{R},11~{R})-17-[5-[(3~{S), 4~{R})-3-amino-4-methoxy-piperidine-1-carbonyl]-1-cyclopropyl-7-fluoro-benzimidazol-2-yl]-8-(6-chloro-2-pyridyl)-8-fluoro-11-methyl-1,10,19-triazatricyclo[10.5.2.0^{15,18}] nonadeca-12(19), 13,15(18),16-tetraen-9-one] | 148 |
| C[C@H]1NC(=O)[C@@H]2C[C@H]2CCCCCn2c(-c3nc4cc(C(=O)N5C[C@H](N)[C@@H]6CC[C@H]5C6)cnc4n3C3CC3)cc3ccc1nc32 [Example 458, (2~{R},5~{R},7~{R})-14-[6-[(1~{S),4~{R},5~{R})-4-amino-2-azabicyclo[3.2.1]octane-2-carbonyl]-3-cyclopropyl-imidazo[4,5-b]pyridin-2-yl]-2-methyl-3,13,19-triazatetracyclo[11.5.2.0^{5,7}.0^{16,20}] icosa-1(19),14,16(20),17-tetraen-4-one] | 23 |

More lines, in order of falling IC50, values ahead:

| IC50 [nM] | Structure (SMILES) |
| --- | --- |
| 30500 | COc1cc(C(=O)NC2CNC2)cc2nc(-c3cc4ccc5nc4n3CCCCCCC(C)(C)C(=O)N[C@@H]5C)n(C)c12 [Example 177, ~{N}-(azetidin-3-yl)-7-methoxy-1-methyl-2-[(11~{R})-8,8,11-trimethyl-9-oxo-1,10,19-triazatricyclo[10.5.2.0^{15,18}]nonadeca-12(19),13,15(18),16-tetraen-17-yl]benzimidazole-5-carboxamide] |
| 1300 | COc1cc(C(=O)N[C@H]2CNC[C@H](C)C2)cc2nc(-c3cc4ccc5nc4n3CCCCCCC(C)(C)C(=O)N[C@@H]5C)n(C)c12 [Example 67, 7-methoxy-1-methyl-~{N}-[(3~{R},5~{R})-5-methyl-3-piperidyl]-2-[(11~{R})-8,8,11-trimethyl-9-oxo-1,10,19-triazatricyclo[10.5.2.0^{15,18}]nonadeca-12(19),13,15(18),16-tetraen-17-yl]benzimidazole-5-carboxamide] |
| 110 | COc1cc(C(=O)N[C@H]2CNCC[C@@H]2F)cc2nc(-c3cc4ccc5nc4n3CCCCCc3cccc(C)c3C(=O)N[C@@H]5C)n(C)c12 [Example 363, 2-[(2~{R})-2,6-dimethyl-4-oxo-3,16,22-triazatetracyclo[14.5.2.0^{5,10}.0^{19,23}]tricosa-1(22),5(10),6,8,17,19(23),20-heptaen-17-yl]-~{N}-[(3~{S},4~{S})-4-fluoro-3-piperidyl]-7-methoxy-1-methyl-benzimidazole-5-carboxamide] |
| 108 | C[C@H]1NC(=O)[C@@H]2[C@@H](CCCCCn3c(-c4nc5cc(C(=O)N[C@H]6CNCC[C@@H]6F)c(F)cc5n4C)cc4ccc1nc43)C2(F)F (single isomer, unassigned) [Example 382, 2-[(2˜{R},5˜{S},7˜{R})-6,6-difluoro-2-methyl-4-oxo-3,13,19-triazatetracyclo[11.5.2.0^{5,7}.0^{16,20}]icosa-1(19),14,16(20),17-tetraen-14-yl]-6-fluoro-˜{N}-[(3˜{S},4˜{S})-4-fluoro-3-piperidyl]-1-methyl-benzimidazole-5-carboxamide] |
| 74 | COc1cc(C(=O)N2C[C@@H](O)C[C@@H](N)[C@H]2C)cc2nc(-c3cc4ccc5nc4n3CCCCCCC(C)(C)C(=O)N[C@@H]5C)n(C)c12 [Example 800, (11~{R})-17-[5-[(2~{R},3~{R}, 5~{S})-3-amino-5-hydroxy-2-methyl-piperidine-1-carbonyl]-7-methoxy-1-methyl-benzimidazol-2-yl]-8,8,11-trimethyl-1,10,19-triazatricyclo [10.5.2.0^{15,18}]nonadeca-12,14,16,18-tetraen-9-one] |
| 64 | CCn1c(-c2cc3ccc4nc3n2CCCCCCC(C)(C)C(=O)N[C@@H]4C)nc2cc(C(=O)N[C@H]3CNCC[C@@H]3F)c(F)cc21 [Example 423, 1-ethyl-6-fluoro-~{N}-[(3~{S},4~{S})-4-fluoro-3-piperidyl]-2-[(11~{R})-8,8,11-trimethyl-9-oxo-1,10,19-triazatricyclo[10.5.2.0^{15,18}]nonadeca-12(19),13,15(18),16-tetraen-17-yl]benzimidazole-5-carboxamide] |
| 54 | C[C@H]1NC(=O)C(C)(C)CCCCCCn2c(-c3nc4cc(C(=O)N5CCC[C@@H](N)C5)ccc4n3C3CC3)cc3ccc1nc32 [Example 117, (11~{R})-17-[5-[(3~{R})-3-aminopiperidine-1-carbonyl]-1-cyclopropyl-benzimidazol-2-yl]-8,8,11-trimethyl-1,10,19-triazatricyclo[10.5.2.0^{15,18}]nonadeca-12(19),13,15(18),16-tetraen-9-one] |
| 31 | COc1cc(C(=O)N2C[C@H](N)[C@@H]3CC[C@H]2C3)cc2nc(-c3cc4ccc5nc4n3CCCCCC[C@](C)(F)C(=O)N[C@@H]5C)n(C)c12 [Example 949, (8~{S},11~{R})-17-[5-[(1~{S},4~{R},5~{R})-4-amino-2-azabicyclo[3.2.1]octane-2-carbonyl]-7-methoxy-1-methyl-benzimidazol-2-yl]-8-fluoro-8,11-dimethyl-1,10,19-triazatricyclo [10.5.2.0^{15,18}]nonadeca-12(19),13,15(18),16-tetraen-9-one] |
| 28 | C[C@H]1NC(=O)c2cc(Cl)ncc2CCCCCn2c(-c3nc4cc(C(=O)N5C[C@H](N)[C@@H]6CC[C@H]5C6)cc(F)c4n3C3CC3)cc3ccc1nc32 [Example 672, (2~{R})-17-[5-[(1~{S},4~ {R},5~{R})-4-amino-2-azabicyclo[3.2.1]octane-2-carbonyl]-1-cyclopropyl-7-fluoro-benzimidazol-2-yl]-7-chloro-2-methyl-3,8,16,22-tetrazatetracyclo [14.5.2.0^{5,10}.0^{19,23}] tricosa-1(22),5(10),6,8,17,19 (23),20-heptaen-4-one] |
| 7 | COc1cc(C(=O)N2[C@H]3CC[C@@H]2[C@H](N)C3)cc2nc(-c3cc4ccc5nc4n3CCCCCCCC(=O)N[C@@H]5C)n(C)c12 [Example 285, (11~{R})-17-[5-[(1~{R},2~{R},4~{S})-2-amino-7-azabicyclo[2.2.1]heptane-7-carbonyl]-7-methoxy-1-methyl-benzimidazol-2-yl]-11-methyl-1,10,19-triazatricyclo[10.5.2.0^{15,18}]nonadeca-12(19),13,15(18),16-tetraen-9-one] |
